Test results taken from the OligoGym collection.
HELM strings list units from the 5' end as sugar, base in round brackets, then linkage (d deoxyribose, r ribose, m 2'-O-methyl, p phosphodiester). Strings are as the collection lists them; they lack the last nucleoside at the 3' end of the tested compound. [moe] = 2'-O-(2-methoxyethyl) (MOE); [sp] = phosphorothioate linkage; [m5C] = 5-methylcytosine

Target: ATXN2
Experiment: mouse, dose not given
Details: ASO

Row | Substance | 3 h FOB score [score 0-7]
1 | RNA1{[moe](T)[sp].[moe]([m5C])p.[moe]([m5C])p.[moe](T)p.[moe](T)p.d(G)[sp].d(T)[sp].d(T)[sp].d(G)[sp].d(T)[sp].d(A)[sp].d(T)[sp].d(G)[sp].d(G)[sp].d(T)[sp].[moe](A)p.[moe](A)p.[moe](T)[sp].[moe](T)}$$$$ (last 3' nucleoside missing) | 5
2 | RNA1{[moe](G)[sp].[moe](G)p.[moe](T)p.[moe](G)p.[moe](A)p.d(T)[sp].d(G)[sp].d(T)[sp].d(T)[sp].d(T)[sp].d([m5C])[sp].d(A)[sp].d(T)[sp].d(T)[sp].d(G)[sp].[moe](G)p.[moe](G)p.[moe](T)[sp].[moe](T)}$$$$ (last 3' nucleoside missing) | 4.5
3 | RNA1{[moe]([m5C])[sp].[moe](T)p.[moe]([m5C])p.[moe](T)p.[moe]([m5C])[sp].d([m5C])[sp].d(A)[sp].d(T)[sp].d(T)[sp].d(A)[sp].d(T)[sp].d(T)[sp].d(T)[sp].d([m5C])[sp].d(T)[sp].[moe](T)p.[moe]([m5C])p.[moe](A)[sp].[moe]([m5C])}$$$$ (last 3' nucleoside missing) | 5.75
4 | RNA1{[moe](A)[sp].[moe](A)p.[moe]([m5C])p.[moe]([m5C])p.[moe](A)p.d(T)[sp].d(G)[sp].d([m5C])[sp].d([m5C])[sp].d(T)[sp].d([m5C])[sp].d(T)[sp].d(T)[sp].d(T)[sp].d(T)[sp].[moe](T)p.[moe](T)p.[moe]([m5C])[sp].[moe](T)}$$$$ (last 3' nucleoside missing) | 0
5 | RNA1{[moe](T)[sp].[moe](G)p.[moe](G)p.[moe](A)p.d(T)[sp].d(T)[sp].d([m5C])[sp].d(T)[sp].d(G)[sp].d(T)[sp].d(A)[sp].d([m5C])[sp].d(T)[sp].d(T)[sp].[moe](T)p.[moe](T)p.[moe]([m5C])p.[moe](T)[sp].[moe]([m5C])}$$$$ (last 3' nucleoside missing) | 3.5
6 | RNA1{[moe](G)[sp].[moe](T)p.[moe](T)p.[moe](A)p.[moe]([m5C])[sp].d(T)[sp].d(G)[sp].d(T)[sp].d(T)[sp].d(T)[sp].d([m5C])[sp].d(G)[sp].d(A)[sp].[moe]([m5C])p.[moe]([m5C])p.[moe](T)[sp].[moe]([m5C])}$$$$ (last 3' nucleoside missing) | 6
7 | RNA1{[moe](G)[sp].[moe](G)p.[moe](A)p.[moe](A)p.[moe](T)p.d([m5C])[sp].d(T)[sp].d(T)[sp].d(A)[sp].d(T)[sp].d(T)[sp].d(A)[sp].d(A)[sp].d(G)[sp].d([m5C])[sp].[moe](A)p.[moe](A)p.[moe](G)[sp].[moe](T)}$$$$ (last 3' nucleoside missing) | 4.5
8 | RNA1{[moe](T)[sp].[moe](A)p.[moe]([m5C])p.[moe](T)p.[moe](G)[sp].d(T)[sp].d(T)[sp].d(T)[sp].d([m5C])[sp].d(G)[sp].d(A)[sp].d([m5C])[sp].d([m5C])[sp].[moe](T)p.[moe]([m5C])p.[moe](T)[sp].[moe](G)}$$$$ (last 3' nucleoside missing) | 4.75
9 | RNA1{[moe]([m5C])[sp].[moe](T)p.[moe]([m5C])p.[moe](T)p.[moe](A)[sp].d(T)[sp].d(T)[sp].d(T)[sp].d([m5C])[sp].d(T)[sp].d(T)[sp].d(T)[sp].d(G)[sp].[moe](T)p.[moe]([m5C])p.[moe]([m5C])[sp].[moe](A)}$$$$ (last 3' nucleoside missing) | 3.5
10 | RNA1{[moe]([m5C])[sp].[moe](A)p.[moe](G)p.[moe]([m5C])p.[moe](A)p.d(T)[sp].d(G)[sp].d(A)[sp].d(T)[sp].d([m5C])[sp].d(T)[sp].d(T)[sp].d(G)[sp].d(T)[sp].d(G)[sp].[moe](T)p.[moe](A)p.[moe](T)[sp].[moe](A)}$$$$ (last 3' nucleoside missing) | 2.25
11 | RNA1{[moe](A)[sp].[moe]([m5C])p.[moe](A)p.[moe]([m5C])p.[moe](A)[sp].d(G)[sp].d(T)[sp].d(T)[sp].d(T)[sp].d([m5C])[sp].d(A)[sp].d([m5C])[sp].d(T)[sp].d(A)[sp].d(G)[sp].[moe](G)p.[moe](T)p.[moe](T)[sp].[moe]([m5C])}$$$$ (last 3' nucleoside missing) | 4.75
12 | RNA1{[moe](T)[sp].[moe](A)p.[moe]([m5C])p.[moe](T)p.[moe]([m5C])p.d(T)[sp].d([m5C])[sp].d([m5C])[sp].d(A)[sp].d(T)[sp].d(T)[sp].d(A)[sp].d(T)[sp].d(T)[sp].d(T)[sp].[moe]([m5C])p.[moe](T)p.[moe](T)[sp].[moe]([m5C])}$$$$ (last 3' nucleoside missing) | 2.25
13 | RNA1{[moe](G)[sp].[moe](T)p.[moe](A)p.[moe]([m5C])p.[moe](A)p.d([m5C])[sp].d(A)[sp].d(G)[sp].d(T)[sp].d(T)[sp].d(T)[sp].d([m5C])[sp].d(A)[sp].d([m5C])[sp].d(T)[sp].[moe](A)p.[moe](G)p.[moe](G)[sp].[moe](T)}$$$$ (last 3' nucleoside missing) | 3
14 | RNA1{[moe](T)[sp].[moe]([m5C])p.[moe](A)p.[moe](T)p.[moe](G)p.d(G)[sp].d([m5C])[sp].d(T)[sp].d([m5C])[sp].d([m5C])[sp].d(A)[sp].d(A)[sp].d(T)[sp].d(A)[sp].d(T)[sp].[moe]([m5C])p.[moe](G)p.[moe](G)[sp].[moe]([m5C])}$$$$ (last 3' nucleoside missing) | 2.25
15 | RNA1{[moe](A)[sp].[moe](T)p.[moe](G)p.[moe](A)p.[moe](T)p.d([m5C])[sp].d(T)[sp].d(T)[sp].d(G)[sp].d(T)[sp].d(G)[sp].d(T)[sp].d(A)[sp].d(T)[sp].d(A)[sp].[moe](T)p.[moe](A)p.[moe](T)[sp].[moe](T)}$$$$ (last 3' nucleoside missing) | 6
16 | RNA1{[moe](T)[sp].[moe](G)p.[moe]([m5C])p.[moe]([m5C])p.[moe](T)[sp].d([m5C])[sp].d(T)[sp].d(A)[sp].d([m5C])[sp].d(T)[sp].d([m5C])[sp].d(G)[sp].d(G)[sp].[moe](T)p.[moe]([m5C])p.[moe]([m5C])[sp].[moe](A)}$$$$ (last 3' nucleoside missing) | 4
17 | RNA1{[moe](T)[sp].[moe](T)p.[moe](T)p.[moe](G)p.[moe](A)p.d(A)[sp].d(T)[sp].d(T)[sp].d(A)[sp].d([m5C])[sp].d(A)[sp].d(A)[sp].d(T)[sp].d(G)[sp].d([m5C])[sp].[moe](G)p.[moe](G)p.[moe](T)[sp].[moe](A)}$$$$ (last 3' nucleoside missing) | 3.5
18 | RNA1{[moe]([m5C])[sp].[moe](T)p.[moe](T)p.[moe](G)p.[moe](T)p.d(T)[sp].d(G)[sp].d(T)[sp].d(T)[sp].d(G)[sp].d(T)[sp].d(T)[sp].d(T)[sp].d(A)[sp].d([m5C])[sp].[moe](A)p.[moe](T)p.[moe](T)[sp].[moe](A)}$$$$ (last 3' nucleoside missing) | 3
19 | RNA1{[moe](T)[sp].[moe](A)p.[moe]([m5C])p.[moe](T)p.[moe](G)p.d(T)[sp].d(T)[sp].d(T)[sp].d([m5C])[sp].d(G)[sp].d(A)[sp].d([m5C])[sp].d([m5C])[sp].d(T)[sp].d([m5C])[sp].[moe](T)p.[moe](G)p.[moe](A)[sp].[moe](A)}$$$$ (last 3' nucleoside missing) | 3
20 | RNA1{[moe]([m5C])[sp].[moe](T)p.[moe](T)p.[moe](T)p.[moe](T)[sp].d([m5C])[sp].d(T)[sp].d([m5C])[sp].d(A)[sp].d(T)[sp].d(G)[sp].d(T)[sp].d(G)[sp].[moe]([m5C])p.[moe](G)p.[moe](G)[sp].[moe]([m5C])}$$$$ (last 3' nucleoside missing) | 5.5
21 | RNA1{[moe](G)[sp].[moe](A)p.[moe](A)p.[moe](G)p.[moe]([m5C])p.d(A)[sp].d(G)[sp].d(A)[sp].d(T)[sp].d(T)[sp].d(T)[sp].d(T)[sp].d(T)[sp].d(T)[sp].d(T)[sp].[moe](T)p.[moe](T)p.[moe](T)[sp].[moe](T)}$$$$ (last 3' nucleoside missing) | 3
22 | RNA1{[moe](T)[sp].[moe](T)p.[moe](T)p.[moe](T)p.[moe](G)p.d([m5C])[sp].d(T)[sp].d(T)[sp].d(A)[sp].d(T)[sp].d(T)[sp].d(A)[sp].d(T)[sp].d(T)[sp].d([m5C])[sp].[moe](T)p.[moe]([m5C])p.[moe](A)[sp].[moe]([m5C])}$$$$ (last 3' nucleoside missing) | 0
23 | RNA1{[moe](T)[sp].[moe](A)p.[moe]([m5C])p.[moe](T)p.[moe](T)[sp].d(T)[sp].d(T)[sp].d([m5C])[sp].d(T)[sp].d([m5C])[sp].d(A)[sp].d(T)[sp].d(G)[sp].[moe](T)p.[moe](G)p.[moe]([m5C])[sp].[moe](G)}$$$$ (last 3' nucleoside missing) | 4.75
24 | RNA1{[moe](G)[sp].[moe]([m5C])p.[moe](T)p.[moe](G)p.[moe](A)p.d(T)[sp].d(G)[sp].d(T)[sp].d(G)[sp].d(T)[sp].d(T)[sp].d([m5C])[sp].d(A)[sp].d(T)[sp].d(G)[sp].[moe](A)p.[moe]([m5C])p.[moe](T)[sp].[moe](T)}$$$$ (last 3' nucleoside missing) | 4.5
25 | RNA1{[moe](T)[sp].[moe](A)p.[moe]([m5C])p.[moe](A)p.[moe]([m5C])p.d(A)[sp].d(G)[sp].d(T)[sp].d(T)[sp].d(T)[sp].d([m5C])[sp].d(A)[sp].d([m5C])[sp].d(T)[sp].d(A)[sp].[moe](G)p.[moe](G)p.[moe](T)[sp].[moe](T)}$$$$ (last 3' nucleoside missing) | 1
26 | RNA1{[moe](T)[sp].[moe]([m5C])p.[moe]([m5C])p.[moe](T)p.[moe](A)p.d(T)[sp].d([m5C])[sp].d(A)[sp].d(T)[sp].d([m5C])[sp].d(A)[sp].d(T)[sp].d(T)[sp].d(T)[sp].d(T)[sp].[moe]([m5C])p.[moe]([m5C])p.[moe](A)[sp].[moe](G)}$$$$ (last 3' nucleoside missing) | 3.75
27 | RNA1{[moe](A)[sp].[moe](A)p.[moe]([m5C])p.[moe](G)p.[moe](G)p.d(A)[sp].d(G)[sp].d(T)[sp].d([m5C])[sp].d(A)[sp].d([m5C])[sp].d(T)[sp].d(G)[sp].d(T)[sp].d(T)[sp].[moe](T)p.[moe](T)p.[moe](T)[sp].[moe]([m5C])}$$$$ (last 3' nucleoside missing) | 5.5
